What follows are compounds tested against T1, human recombinant PAK1-KD protein (Homo sapiens, UniProt Q13153) (assay: PAK1-KD (kinase domain) IC50 Zlyte assay). Details: Z′-LYTE FRET peptide substrate (Ser/Thr19), 20 pM PAK1-KD, 60-minute incubation at 22° C.
T1 construct: made in house; host or cells: Tini cells (insect cells) infected with recombinant baculovirus
Assay type: biochemical
From the text: PAK1-KD (Kinase Domain) IC50 Zlyte Assay Protocol
Activity of human recombinant PAK1-KD protein may be assessed in vitro by assay of the phosphorylation of a FRET peptide substrate. Catalytically active human recombinant PAK1-KD protein is obtained by purification from Tini cells infected with a human PAK1-KD recombinant baculovirus expression vector.
The activity/inhibition of PAK1-KD was estimated by measuring the phosphorylation of a FRET peptide substrate (Ser/Thr19) labeled with coumarin and fluorescein using Z′-LYTE™ assay (Invitrogen). The peptide substrate is a consensus sequence (KKRNRRLSVA) based on various PAK substrates reported in the scientific literature. The 10 μL assay mixtures contained 50 mM HEPES (pH 7.5), 0.01% Brij-35, 10 mM MgCl2, 1 mM EGTA, 2 μM FRET peptide substrate, and 20 pM PAK1-KD. Incubations were carried out at 22° C. in black polypropylene 384-well plates (Corning Costar). […] Following the 60-minute incubation, the assay mixtures were quenched by the addition of 5 μL of Z′-LYTETm development reagent, and 1 hour later the emissions of Coumarin (445 nm) and Fluorescein (520 nm) were determined after excitation at 400 nm using an Envision plate reader (Perkin Elmer). An emission ratio (445 nm/520 nm) was determined to quantify the degree of substrate phosphorylation.

T1 sequence (Q13153 270-521 limits assumed): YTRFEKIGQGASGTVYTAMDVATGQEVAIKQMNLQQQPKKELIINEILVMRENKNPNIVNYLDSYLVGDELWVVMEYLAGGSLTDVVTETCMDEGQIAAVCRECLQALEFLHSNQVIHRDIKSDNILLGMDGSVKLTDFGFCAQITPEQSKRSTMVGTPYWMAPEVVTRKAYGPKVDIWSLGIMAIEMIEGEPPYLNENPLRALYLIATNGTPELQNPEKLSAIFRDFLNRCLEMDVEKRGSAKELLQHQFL

| Compound | IC50 [nM] |
| --- | --- |
| CCn1c(=O)c(-c2cccc(S(=O)(=O)N(C)C)c2)cc2cnc(NCCC3CCN(C)CC3)nc21 [Compound I-1, 3-[8-ethyl-2-[2-(1-methyl-4-piperidyl)ethylamino]-7-oxo-pyrido[2,3-d]pyrimidin-6-yl]-N,N-dimethyl-benzenesulfonamide] | 182 |
| CCNS(=O)(=O)c1ccc(-c2cc3cnc(NCCC4CCN(C)CC4)nc3n(CC)c2=O)c(C)c1 [Compound I-2, N-ethyl-4-[8-ethyl-2-[2-(1-methyl-4-piperidyl)ethylamino]-7-oxo-pyrido[2,3-d]pyrimidin-6-yl]-3-methyl-benzenesulfonamide] | 133 |
| CCn1c(=O)c(-c2ccc(S(=O)(=O)N(C)C)cc2C)cc2cnc(NCCC3CCN(C)CC3)nc21 [Compound I-3, 4-[8-ethyl-2-[2-(1-methyl-4-piperidyl)ethylamino]-7-oxo-pyrido[2,3-d]pyrimidin-6-yl]-N,N,3-trimethyl-benzenesulfonamide] | 1320 |
| CCn1c(=O)c(-c2ccc(S(=O)(=O)N3CCOCC3)cc2C)cc2cnc(NCCC3CCN(C)CC3)nc21 [Compound I-4, 8-ethyl-6-(2-methyl-4-morpholinosulfonyl-phenyl)-2-[2-(1-methyl-4-piperidyl)ethylamino]pyrido[2,3-d]pyrimidin-7-one] | 751 |
| CCn1c(=O)c(-c2ccc(S(=O)(=O)N3CCCC3)cc2C)cc2cnc(NCCC3CCN(C)CC3)nc21 [Compound I-5, 8-ethyl-2-[2-(1-methyl-4-piperidyl)ethylamino]-6-(2-methyl-4-pyrrolidin-1-ylsulfonyl-phenyl)pyrido[2,3-d]pyrimidin-7-one] | 460 |
| CCn1c(=O)c(-c2ccc(S(=O)(=O)NC3CC3)cc2C)cc2cnc(NCCC3CCN(C)CC3)nc21 [Compound I-6, N-cyclopropyl-4-[8-ethyl-2-[2-(1-methyl-4-piperidyl)ethylamino]-7-oxo-pyrido[2,3-d]pyrimidin-6-yl]-3-methyl-benzenesulfonamide] | 77.1 |

Now from value to compound:

| IC50 [nM] | Compound |
| --- | --- |
| 582 | CCn1c(=O)c(-c2ccc(S(=O)(=O)NC)cc2C)cc2cnc(NCCC3CCN(C)CC3)nc21 [Compound I-7, 4-[8-ethyl-2-[2-(1-methyl-4-piperidyl)ethylamino]-7-oxo-pyrido[2,3-d]pyrimidin-6-yl]-N,3-dimethyl-benzenesulfonamide] |
| 22.3 | CCNS(=O)(=O)c1ccc(-c2cc3cnc(NCCC4CCN(C)CC4)nc3n(CC)c2=O)c(Cl)c1 [Compound I-8, 3-chloro-N-ethyl-4-[8-ethyl-2-[2-(1-methyl-4-piperidyl)ethylamino]-7-oxo-pyrido[2,3-d]pyrimidin-6-yl]benzenesulfonamide] |
| 131 | CCNc1ncc2cc(-c3ccc(S(=O)(=O)NCC)cc3Cl)c(=O)n(CC)c2n1 [Compound I-9, 3-chloro-N-ethyl-4-[8-ethyl-2-(ethylamino)-7-oxo-pyrido[2,3-d]pyrimidin-6-yl]benzenesulfonamide] |
| 820 | CNS(=O)(=O)c1ccc(-c2cc3cnc(NCCC4CCN(C)CC4)nc3n(C)c2=O)c(Cl)c1 [Compound I-10, 3-chloro-N-methyl-4-[8-methyl-2-[2-(1-methyl-4-piperidyl)ethylamino]-7-oxo-pyrido[2,3-d]pyrimidin-6-yl]benzenesulfonamide] |
| 1600 | CCNc1ncc2cc(-c3ccc(S(=O)(=O)NC)cc3Cl)c(=O)n(C)c2n1 [Compound I-11, 3-chloro-4-[2-(ethylamino)-8-methyl-7-oxo-pyrido[2,3-d]pyrimidin-6-yl]-N-methyl-benzenesulfonamide] |
| 177 | CCNc1ncc2cc(-c3ccc(S(=O)(=O)NC(C)C)cc3Cl)c(=O)n(C)c2n1 [Compound I-12, 3-chloro-4-[2-(ethylamino)-8-methyl-7-oxo-pyrido[2,3-d]pyrimidin-6-yl]-N-isopropyl-benzenesulfonamide] |
| 80.4 | CC(C)NS(=O)(=O)c1ccc(-c2cc3cnc(NCCC4CCN(C)CC4)nc3n(C)c2=O)c(Cl)c1 [Compound I-13, 3-chloro-N-isopropyl-4-[8-methyl-2-[2-(1-methyl-4-piperidyl)ethylamino]-7-oxo-pyrido[2,3-d]pyrimidin-6-yl]benzenesulfonamide] |
| 310 | CCn1c(=O)c(-c2cc(S(=O)(=O)N(C)C)ccc2Cl)cc2cnc(NCCC3CCN(C)CC3)nc21 [Compound I-14, 4-chloro-3-[8-ethyl-2-[2-(1-methyl-4-piperidyl)ethylamino]-7-oxo-pyrido[2,3-d]pyrimidin-6-yl]-N,N-dimethyl-benzenesulfonamide] |

Source: patent US20140323477A1, “SERINE/THREONINE KINASE INHIBITORS” (Genentech, Inc., priority 2013, published 2014)
